Where two headings read alike, the source gives them in different places.
Assays:
Assay in all cases: Antimicrobial susceptibility testing (MIC), BD Phoenix Automated Microbiology System; for interpretation of the result: key: R, resistant; I, intermediate; S, susceptible; R*: *As a rule, when ESBL is detected, an interpretation of susceptible or intermediate for penicillins, cephalosporins and aztreonam is reported as resistant
Type in all cases: cell-based
[1] = system: Acinetobacter baumannii; conditions: for MIC: Acinetobacter baumannii; for interpretation of the result: key: R, resistant; I, intermediate; S, susceptible; R*: *As a rule, when ESBL is detected, an interpretation of susceptible or intermediate for penicillins, cephalosporins and aztreonam is reported as resistant
From the text: (§1) The inventors performed antimicrobial susceptibility testing (AST) by determining the minimal inhibiting concentration (MIC) of a panel of antimicrobials on all twenty bacterial isolates using the BD Phoenix Automated Microbiology System (Table 3). Antimicrobial panels included several drugs from each of the four most commonly used classes of antimicrobials, aminoglycosides, β-lactams, carbapenems and fluoroquinolones. The panels also included antimicrobials from other classes, such as trimethoprim/sulfamethoxazole, but resistance to these was not considered in the classification of isolates as multidrug-resistant.

[2] = system: Escherichia coli; conditions: for MIC: Escherichia coli; for interpretation of the result: key: R, resistant; I, intermediate; S, susceptible; R*: *As a rule, when ESBL is detected, an interpretation of susceptible or intermediate for penicillins, cephalosporins and aztreonam is reported as resistant
From the text: as §1

[3] = system: Klebsiella ssp.; conditions: for MIC: Klebsiella; for interpretation of the result: key: R, resistant; I, intermediate; S, susceptible; R*: *As a rule, when ESBL is detected, an interpretation of susceptible or intermediate for penicillins, cephalosporins and aztreonam is reported as resistant
From the text: as §1

[4] = system: Pseudomonas aeruginosa; conditions: for MIC: Pseudomonas aeruginosa
From the text: as §1

[5] = Acinetobacter baumannii isolate 1
[6] = Acinetobacter baumannii isolate 2
[7] = Acinetobacter baumannii isolate 3
[8] = Acinetobacter baumannii isolate 4
[9] = Acinetobacter baumannii isolate 5
[10] = Pseudomonas aeruginosa isolate 1
[11] = Pseudomonas aeruginosa isolate 2
[12] = Pseudomonas aeruginosa isolate 3
[13] = Pseudomonas aeruginosa isolate 4
[14] = Pseudomonas aeruginosa isolate 5

Gentamicin [Gent.]
4 µg/mL: minimal inhibiting concentration [4, 10] | minimal inhibiting concentration [4, 11]
8 µg/mL: minimal inhibiting concentration ([3]; Klebsiella ssp. isolate 3) | minimal inhibiting concentration [4, 12]
≤ 2 µg/mL: minimal inhibiting concentration ([2]; Escherichia coli isolate 4) | minimal inhibiting concentration ([2]; Escherichia coli isolate 5)
R: interpretation of the result [1, 5] | interpretation of the result [1, 6] | interpretation of the result [1, 7] | interpretation of the result [1, 8] | interpretation of the result [1, 9] | interpretation of the result ([2]; Escherichia coli isolate 1) | interpretation of the result ([2]; Escherichia coli isolate 2) | interpretation of the result ([2]; Escherichia coli isolate 3) | interpretation of the result ([3]; Klebsiella ssp. isolate 1) | interpretation of the result ([3]; Klebsiella ssp. isolate 2) | interpretation of the result ([3]; Klebsiella ssp. isolate 4) | interpretation of the result ([3]; Klebsiella ssp. isolate 5) | interpretation of the result [4, 13] | interpretation of the result [4, 14]
I: interpretation of the result ([3]; Klebsiella ssp. isolate 3) | interpretation of the result [4, 12]
S: interpretation of the result ([2]; Escherichia coli isolate 4) | interpretation of the result ([2]; Escherichia coli isolate 5) | interpretation of the result [4, 10] | interpretation of the result [4, 11]
> 8 µg/mL: minimal inhibiting concentration [1, 5] | minimal inhibiting concentration [1, 6] | minimal inhibiting concentration [1, 7] | minimal inhibiting concentration [1, 8] | minimal inhibiting concentration [1, 9] | minimal inhibiting concentration ([2]; Escherichia coli isolate 1) | minimal inhibiting concentration ([2]; Escherichia coli isolate 2) | minimal inhibiting concentration ([2]; Escherichia coli isolate 3) | minimal inhibiting concentration ([3]; Klebsiella ssp. isolate 1) | minimal inhibiting concentration ([3]; Klebsiella ssp. isolate 2) | minimal inhibiting concentration ([3]; Klebsiella ssp. isolate 4) | minimal inhibiting concentration ([3]; Klebsiella ssp. isolate 5) | minimal inhibiting concentration [4, 13] | minimal inhibiting concentration [4, 14]

CC(C)(O/N=C(\C(=O)N[C@@H]1C(=O)N2C(C(=O)[O-])=C(C[n+]3ccccc3)CS[C@H]12)c1csc(N)n1)C(=O)O [Ceft., Ceftazidime]
8 µg/mL: MIC ([1]; Acinetobacter baumannii isolate 3, read-out: minimal inhibiting concentration) | MIC ([4]; Pseudomonas aeruginosa isolate 2, read-out: minimal inhibiting concentration)
> 16 µg/mL: MIC ([1]; Acinetobacter baumannii isolate 1, read-out: minimal inhibiting concentration) | MIC ([1]; Acinetobacter baumannii isolate 2, read-out: minimal inhibiting concentration) | MIC ([1]; Acinetobacter baumannii isolate 4, read-out: minimal inhibiting concentration) | MIC ([1]; Acinetobacter baumannii isolate 5, read-out: minimal inhibiting concentration) | MIC ([2]; Escherichia coli isolate 1, read-out: minimal inhibiting concentration) | MIC ([2]; Escherichia coli isolate 2, read-out: minimal inhibiting concentration) | MIC ([2]; Escherichia coli isolate 3, read-out: minimal inhibiting concentration) | MIC ([2]; Escherichia coli isolate 4, read-out: minimal inhibiting concentration) | MIC ([3]; Klebsiella ssp. isolate 1, read-out: minimal inhibiting concentration) | MIC ([3]; Klebsiella ssp. isolate 5, read-out: minimal inhibiting concentration) | MIC ([4]; Pseudomonas aeruginosa isolate 1, read-out: minimal inhibiting concentration) | MIC ([4]; Pseudomonas aeruginosa isolate 3, read-out: minimal inhibiting concentration) | MIC ([4]; Pseudomonas aeruginosa isolate 4, read-out: minimal inhibiting concentration) | MIC ([4]; Pseudomonas aeruginosa isolate 5, read-out: minimal inhibiting concentration)
4 µg/mL: MIC ([2]; Escherichia coli isolate 5, read-out: minimal inhibiting concentration)
R: interpretation of the result [1, 5] | interpretation of the result [1, 6] | interpretation of the result [1, 8] | interpretation of the result [1, 9] | interpretation of the result ([2]; Escherichia coli isolate 1) | interpretation of the result ([2]; Escherichia coli isolate 2) | interpretation of the result ([2]; Escherichia coli isolate 3) | interpretation of the result ([2]; Escherichia coli isolate 4) | interpretation of the result ([3]; Klebsiella ssp. isolate 1) | interpretation of the result ([3]; Klebsiella ssp. isolate 5) | interpretation of the result [4, 10] | interpretation of the result [4, 12] | interpretation of the result [4, 13] | interpretation of the result [4, 14]
S: interpretation of the result [1, 7] | interpretation of the result [4, 11]
> 2 µg/mL: MIC ([3]; Klebsiella ssp. isolate 2, read-out: minimal inhibiting concentration) | MIC ([3]; Klebsiella ssp. isolate 3, read-out: minimal inhibiting concentration) | MIC ([3]; Klebsiella ssp. isolate 4, read-out: minimal inhibiting concentration)

C[C@@H](O)[C@H]1C(=O)N2C(C(=O)O)=C(SCCN=CN)C[C@H]12 [Im., Imipenem]
> 8 µg/mL: MIC ([1]; read-out: minimal inhibiting concentration, Acinetobacter baumannii isolate 2) | MIC ([1]; read-out: minimal inhibiting concentration, Acinetobacter baumannii isolate 3) | MIC ([1]; read-out: minimal inhibiting concentration, Acinetobacter baumannii isolate 5) | MIC ([4]; read-out: minimal inhibiting concentration, Pseudomonas aeruginosa isolate 1) | MIC ([4]; read-out: minimal inhibiting concentration, Pseudomonas aeruginosa isolate 2) | MIC ([4]; read-out: minimal inhibiting concentration, Pseudomonas aeruginosa isolate 3) | MIC ([4]; read-out: minimal inhibiting concentration, Pseudomonas aeruginosa isolate 4)
S: interpretation of the result [1, 5] | interpretation of the result [1, 8] | interpretation of the result ([2]; Escherichia coli isolate 1) | interpretation of the result ([2]; Escherichia coli isolate 2) | interpretation of the result ([2]; Escherichia coli isolate 3) | interpretation of the result ([2]; Escherichia coli isolate 4) | interpretation of the result ([2]; Escherichia coli isolate 5) | interpretation of the result ([3]; Klebsiella ssp. isolate 1) | interpretation of the result ([3]; Klebsiella ssp. isolate 2) | interpretation of the result ([3]; Klebsiella ssp. isolate 3) | interpretation of the result ([3]; Klebsiella ssp. isolate 4) | interpretation of the result ([3]; Klebsiella ssp. isolate 5) | interpretation of the result [4, 14]
≤ 1 µg/mL: MIC ([2]; read-out: minimal inhibiting concentration, Escherichia coli isolate 1) | MIC ([2]; read-out: minimal inhibiting concentration, Escherichia coli isolate 2) | MIC ([2]; read-out: minimal inhibiting concentration, Escherichia coli isolate 3) | MIC ([2]; read-out: minimal inhibiting concentration, Escherichia coli isolate 4) | MIC ([2]; read-out: minimal inhibiting concentration, Escherichia coli isolate 5) | MIC ([3]; read-out: minimal inhibiting concentration, Klebsiella ssp. isolate 1) | MIC ([3]; read-out: minimal inhibiting concentration, Klebsiella ssp. isolate 2) | MIC ([3]; read-out: minimal inhibiting concentration, Klebsiella ssp. isolate 3) | MIC ([3]; read-out: minimal inhibiting concentration, Klebsiella ssp. isolate 4) | MIC ([3]; read-out: minimal inhibiting concentration, Klebsiella ssp. isolate 5)
2 µg/mL: MIC ([1]; read-out: minimal inhibiting concentration, Acinetobacter baumannii isolate 1) | MIC ([1]; read-out: minimal inhibiting concentration, Acinetobacter baumannii isolate 4) | MIC ([4]; read-out: minimal inhibiting concentration, Pseudomonas aeruginosa isolate 5)
R: interpretation of the result [1, 6] | interpretation of the result [1, 7] | interpretation of the result [1, 9] | interpretation of the result [4, 10] | interpretation of the result [4, 11] | interpretation of the result [4, 12] | interpretation of the result [4, 13]

Source: patent US9529005B2, “Modulating bacterial MAM polypeptides in pathogenic disease” (priority 2011, dated 2016)
